Results on 13 molecules are retold here after patent US12110278B2, “Selective JAK2 pseudokinase ligands and methods of use” (YALE UNIVERSITY, priority 2020, dated 2024).

Sequence of JAK2 JH2 (O60674 536-812 W659A/W777A/F794H): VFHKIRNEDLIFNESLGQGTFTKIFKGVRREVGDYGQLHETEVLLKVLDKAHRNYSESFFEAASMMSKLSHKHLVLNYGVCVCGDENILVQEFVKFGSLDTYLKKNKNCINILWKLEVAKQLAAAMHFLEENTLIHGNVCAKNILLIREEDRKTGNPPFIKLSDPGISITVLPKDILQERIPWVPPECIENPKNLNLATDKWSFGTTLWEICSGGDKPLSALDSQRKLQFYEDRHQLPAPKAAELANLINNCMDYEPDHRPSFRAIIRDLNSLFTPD

For one data set, the target named is JAK2 JH2 V617F mutant (Homo sapiens (Human), UniProt O60674, V617F).
Sequence of JAK2 JH2 V617F mutant (O60674 545-809 V617F): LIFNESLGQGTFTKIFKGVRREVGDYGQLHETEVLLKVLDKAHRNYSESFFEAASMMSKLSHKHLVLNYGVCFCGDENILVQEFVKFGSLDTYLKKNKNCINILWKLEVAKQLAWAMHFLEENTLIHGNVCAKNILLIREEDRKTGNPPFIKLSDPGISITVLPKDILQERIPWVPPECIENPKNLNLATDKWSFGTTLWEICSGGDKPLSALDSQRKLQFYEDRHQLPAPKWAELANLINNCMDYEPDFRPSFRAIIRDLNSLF
Assay: not given
Particulars: cited from earlier work.
For the molecule `Nc1ncnc2c1ncn2[C@@H]1O[C@H](COP(=O)(O)OP(=O)(O)OP(=O)(O)O)[C@@H](O)[C@H]1O` [ATP], the Kd is 1.3 µM.

Another data set concerns the target JAK2 JH2 (Homo sapiens (Human), UniProt O60674). Kind of data set: Competitive fluorescence polarization (FP) assay, JAK2 JH2. Particulars: read-out: Binding Affinity for JAK2 JH2 (Kd) from the FP Assay; wild-type JH2, FP, pH 8.0; mean ± SEM. A general note: In fluorescence polarisation assays a small probe gives low polarisation when free and higher when bound to something large.
Method: In a flat black bottom 96 well plate (Corning), the buffer (20 mM Tris-HCl pH 8.0, 150 mM NaCl, 20% Glycerol, 0.5 mM TCEP, 0.01% Tween 20) is added—200 μL to column 1 (blank), 295 μL to column 2, 150 μL to columns 3-12. […] 150 μL was transferred, using a multichannel pipette, from column 2 to 3, 3 to 4, 4 to 5, until reaching the last column to make a serial dilutions (1:2). […] Experiments were carried out by quadruplicates in three independent experiments. The data provided a typical saturation-binding curve and Kd was calculated fitting the results to the Hill equation using Prism 7.
In a flat black bottom 96 well plate (Corning), 200 μL of FP buffer were added to column 1 (blank), 150 μL to column 2, and 140 μL to columns 3-12. […] 2 μL of inhibitor in DMSO at different concentrations were added from column 4 to 12. […] Experiments were carried out by quadruplicates in three independent experiments. Data were analyzed by a least-squares non-linear fit, generated using Prism 7 in order to determine the compound's IC50. Kd values for each inhibitor are calculated using the following equation based on the IC50, Kd of the tracer (Kd^t), total (Lt) and bound (Lb) tracer, as well as total protein concentration (Pt)^13
Regarding `Nc1nc(Nc2ccc(S(N)(=O)=O)cc2)nn1Cc1c(F)cccc1F` [Compound 2, 4-((5-amino-1-(2,6-difluorobenzyl)-1H-1,2,4-triazol-3-yl)amino)benzenesulfonamide], the Kd was found to be 16.7 µM.

On to `Nc1nc(Nc2ccc(S(N)(=O)=O)cc2)nn1C(=O)Nc1ccccc1` [Compound 4], for which the Kd came to 4.7 µM.

On to `CN(C(=O)n1nc(Nc2ccc(S(N)(=O)=O)cc2)nc1N)c1ccccc1` [Compound 5, 5-amino-N-methyl-N-phenyl-3-((4-sulfamoylphenyl)amino)-1H-1,2,4-triazole-1-carboxamide], for which the Kd was found to be 47.8 ± 9.2 µM.

Turning to `Nc1nc(Nc2ccc(S(N)(=O)=O)cc2)nn1C(=O)Nc1ccccn1` [Compound 6], the Kd was 30.5 ± 3.6 µM.

Take `Nc1nc(Nc2ccc(S(N)(=O)=O)cc2)nn1C(=O)Nc1cccnc1` [Compound 7, 5-amino-N-(pyridin-3-yl)-3((4-sulfamoylphenyl)amino)-1H-1,2,4-triazole-1-carboxamide]: the Kd stood at 12.3 µM.

On to `N#Cc1ccc(Nc2nc(N)n(C(=O)Nc3cccc(OCC(=O)O)c3)n2)cc1` [Compound 11, 2-(3-(5-amino-3((4-cyanophenyl)amino)-1H-1,2,4-triazole-1-carboxamido)phenoxy)acetic acid], for which the Kd came to 4 µM.

`Nc1nc(Nc2ccc(S(N)(=O)=O)cc2)nn1C(=O)Nc1ccc(-c2ccc(C(=O)O)o2)cc1` [Compound 13, 5-(4-(5-amino-3((4-sulfamoylphenyl)amino)-1H-1,2,4-triazole-1-carboxamido)phenyl)furan-2-carboxylic acid]: the Kd was 0.439 ± 0.064 µM.

Consider `Nc1nc(Nc2ccc(S(N)(=O)=O)cc2)nn1C(=O)Nc1ccc(-c2nnc(C(=O)O)o2)cc1` [Compound 14, 5-(4-(5-amino-3((4-sulfamoylphenyl)amino)-1H-1,2,4-triazole-1-carboxamido)phenyl)-1,3,4-oxadiazole-2-carboxylic acid], for which the Kd stood at 7 ± 0.1 µM.

Test system in a further data set: not given
Assay: not given
The note with it: cited from earlier work.
On to `c1ccoc1` [furan], for which the “octanol/water log P” value is on record as 1.34.

With `c1cocn1` [oxazole], the “octanol/water log P” value is reported as 0.12.

For the molecule `c1cscn1` [thiazole], the “octanol/water log P” value is 0.44.

As to `c1ccsc1` [thiophene], the “octanol/water log P” value is on record as 1.81.

In another data set the target is WT JAK2 JH2 (Homo sapiens (Human), UniProt O60674).
Sequence of WT JAK2 JH2 (O60674 545-809): as the sequence (O60674 545-809 V617F) above, with F73V counted along it
Assay: not given
The note with it: read-out: Binding constant with WT JAK2 JH2; cited from earlier work.
`Nc1ncnc2c1ncn2[C@@H]1O[C@H](COP(=O)(O)OP(=O)(O)OP(=O)(O)O)[C@@H](O)[C@H]1O` [ATP]: the Kd is 1.3 µM.
